SMILES strings stand for the structures. Calls of active or inactive are those of the source. The rule behind the calls is not given here. Where only a bound is given, the exact number is not on record here.

The term Kd denotes the equilibrium constant for the complex coming apart.

In this assay the target is Influenza A virus M2 proton channel (A/TW/4845/1999 H1N1). The experiment in a line: M2 proton channel binding, NMR based, influenza A virus H1N1 strain (AID 1549). As to conditions: NMR binding screen, M2 protein.
With `Cc1cccc(NC(=O)Nc2cc(C)on2)c1`, the Kd is > 4 mM (inactive).

On to `NC1=NC(=O)/C(=C\c2ccccc2)S1`, for which the Kd was > 4 mM (inactive). `Nc1ccc(-n2cccc2)cc1`: the Kd is > 4 mM (inactive). As for `O=C(Oc1ccc(-c2nnco2)cc1)N1CCOCC1`, the Kd was > 4 mM (inactive). With `COc1ccc(S(=O)(=O)NCCO)cc1`, the Kd was > 4 mM (inactive). With `Cc1nc2nc(Cc3ccccc3)[nH]n2c(=O)c1Cl` the figure was > 4 mM (inactive); with `CC(=O)c1cccc(N=C2NC(=O)CS2)c1`, > 4 mM (inactive).

In the case of `N[C@@H](CCC(=O)N[C@@H](CS)C(=O)NCC(=O)O)C(=O)O`, the Kd is > 4 mM (inactive). `CC1(C)Cc2nc3[nH]c(=S)[nH]c(=O)c3cc2CO1`: the Kd was > 4 mM (inactive). With `CCOC(=O)CC1Sc2ccccc2NC1=S` (stereo unspecified) the figure was > 4 mM (inactive); with `Cc1nc2cc(Cl)ccc2n1CCO`, > 4 mM (inactive); with `O=C(/C=C/c1ccccc1)c1ccc(O)cc1`, > 4 mM (inactive). For the compound `O=C(O)CC1NCCNC1=O` (stereo unspecified), the Kd was > 4 mM (inactive). With `COc1ccc(N/C(N)=N\c2nc(C)cc(C)n2)cc1` the figure was > 4 mM (inactive). In the case of `Cc1nnc(SCC(=O)N2CCCCC2)s1`, the Kd is > 4 mM (inactive). Turning to `CC1(C)Cc2nc3n[nH]c(N)c3cc2CO1`, the Kd is > 4 mM (inactive).

For `CCCCn1c(S(=O)(=O)O)nc2ccccc21`, the Kd was > 4 mM (inactive). The figure for `O=C1CSC(=S)N1N1C(=O)C2C3C=CC(C3)C2C1=O` (stereo unspecified) is > 4 mM (inactive). With `CCCc1nc2ccccc2c2nc(N)nn12` the figure was > 4 mM (inactive); with `O=C1C=CC(=O)c2c(O)cccc21`, > 4 mM (inactive); with `O=C1N=C(N2CCOCC2)S/C1=C\c1cccnc1`, > 4 mM (inactive). With `O=C(O)CC1Sc2ccccc2NC1=O` (stereo unspecified) the figure was > 4 mM (inactive); with `Cn1ncc(N2CCOCC2)c(Cl)c1=O`, > 4 mM (inactive). Take `O=C(NCc1ccccn1)c1ccccc1Cl`: the Kd was > 4 mM (inactive).

Regarding `Cc1ccc2nc(SCC(=O)O)nc(C)c2c1`, the Kd is > 4 mM (inactive). The figure for `Cc1ccc(SCc2nc(-c3ccncc3)no2)cc1` is > 4 mM (inactive); for `CN(C)N1C(=O)C2C3C=CC(O3)C2C1=O` (stereo unspecified) it is > 4 mM (inactive).

For the compound `CNC(=O)N1CCN(C(=O)NC)CC1`, the Kd was > 4 mM (inactive). The figure for `COc1ccc(S(=O)(=O)N2CCOCC2)cc1C(C)C` is > 4 mM (inactive).

As to `O=C(O)CN(CCCc1ccccc1)CC(=O)O`, the Kd was > 4 mM (inactive).

Take `Cc1nc2ccc(NC(=O)N3CCOCC3)cc2s1`: the Kd was > 4 mM (inactive).

Consider `Cn1nc(-c2cccs2)cc1N`, for which the Kd was > 4 mM (inactive).

As for `CCCS(=O)(=O)N1CCN(c2ccccc2F)CC1`, the Kd was > 4 mM (inactive). The figure for `Nc1nnc(COc2cccc(C(F)(F)F)c2)s1` is > 4 mM (inactive); for `O=C(c1cccs1)N1CCCc2ccccc21` it is > 4 mM (inactive); for `CC(=O)Nc1ccc(CN2CCOCC2)cc1` it is > 4 mM (inactive).

Take `Cc1ccccc1-n1c(-c2cccnc2)n[nH]c1=S`: the Kd is > 4 mM (inactive). The figure for `COc1ccc(C2(CN)CCOCC2)cc1OC` is > 4 mM (inactive); for `O=C1CC(=O)N(c2ccccc2F)C(=S)N1` it is > 4 mM (inactive); for `COc1c(C)c2c(c(O)c1C/C=C(\C)CCC(=O)O)C(=O)OC2` it is > 4 mM (inactive). Regarding `O=C(O)CCC(=O)Nc1ccccn1`, the Kd was > 4 mM (inactive). With `O=[N+]([O-])c1c[n+]([O-])n(-c2ccccc2)n1` the figure was > 4 mM (inactive). With `C=CCc1ccc(O)c(OC)c1` the figure was > 4 mM (inactive). The figure for `O=C(Nc1ccc2c(c1)OCO2)c1cnn2cccnc12` is > 4 mM (inactive); for `COc1ccc(-c2cc(=O)c3ccccc3o2)cc1` it is > 4 mM (inactive); for `CC(=O)c1ccc2c(c1)OCCO2` it is > 4 mM (inactive). Take `CC(=O)c1c(C)nc(-c2ccc(F)cc2)n1O`: the Kd was > 4 mM (inactive). With `O=C(c1ccc(F)cc1)N1CCN(c2ncccn2)CC1` the figure was > 4 mM (inactive); with `COC(=O)NCc1cc2cc(Cl)ccc2[nH]1`, > 4 mM (inactive); with `Cc1cc(SCCF)n2ncnc2n1`, > 4 mM (inactive). With `O=C(Nc1ccon1)c1ccc(Cl)s1` the figure was > 4 mM (inactive). Take `Cc1occc1C(=O)NC1CCN(C)CC1`: the Kd is > 4 mM (inactive). The figure for `O=C(O)CSc1cccc2cccnc12` is > 4 mM (inactive); for `COc1ccc2c(c1)OCC(Cc1ccc(OC)c(OC(C)=O)c1)C2=O` (stereo unspecified) it is > 4 mM (inactive); for `CN1CCN(c2cc(=O)n(C)c(=O)[nH]2)CC1` it is > 4 mM (inactive). The figure for `Cn1c(=O)[nH]c(=O)c2c1ncn2CCN1CCCCC1` is > 4 mM (inactive); for `COc1ccc(-c2c(O)c3c(OC)c4c(cc3oc2=O)OC(C)(C)CC4)cc1` it is > 4 mM (inactive); for `CC(=O)c1cccc(NS(=O)(=O)N(C)C)c1` it is > 4 mM (inactive). The figure for `COc1cc2ccc(=O)oc2c(OC)c1OC` is > 4 mM (inactive). On to `CN1CCN(C(=S)NC(=O)c2ccn(C)n2)CC1`, for which the Kd was > 4 mM (inactive). In the case of `Nc1ccc2c(c1)COc1ccccc1O2`, the Kd is > 4 mM (inactive). With `Cc1ccccc1NC(=S)NCCO` the figure was > 4 mM (inactive); with `O=C(c1ccccc1)N1CCN(c2ccccc2F)CC1`, > 4 mM (inactive); with `O=C1CSC(=Nc2cccc(C(F)(F)F)c2)N1`, > 4 mM (inactive). As to `CC1(C)C(=O)[C@@H]2C[C@@]3(O)C4=CC(=O)O[C@@H](c5ccoc5)[C@]4(C)CCC3C(C)(C2=O)[C@H]1CC(=O)O` (stereo partly specified), the Kd is > 4 mM (inactive). `Cc1noc(C)c1C(=O)N1CCc2ccccc2C1`: the Kd was > 4 mM (inactive). The figure for `O=C(O)Cn1cnc2ccccc2c1=O` is > 4 mM (inactive); for `Cn1cc(Cl)c(C(=O)NC2CCCCCC2)n1` it is > 4 mM (inactive); for `O=C(O)CCC1NCC2CC1CN1CCCCC21` (stereo unspecified) it is > 4 mM (inactive). With `O=c1[nH]oc2ccccc12` the figure was > 4 mM (inactive).

Consider `O=C1CCC(c2cccs2)=NN1`, for which the Kd was > 4 mM (inactive).

As to `Cc1nnsc1C(=O)Nc1ccccc1[N+](=O)[O-]`, the Kd is > 4 mM (inactive). For `COCC(=O)NC1CC(C)(C)NC(C)(C)C1`, the Kd was > 4 mM (inactive). As to `COc1nc(C)ccc1-c1noc(-c2ccco2)n1`, the Kd was > 4 mM (inactive). With `Cc1cccc(C)c1NC(=O)/C=C/C(=O)O` the figure was > 4 mM (inactive); with `C=C1C2CC[C@@]3(C)[C@H](c4ccoc4)OC(=O)C[C@]13O[C@H]1CC(=O)C(C)(C)[C@H](C(O)C(=O)OC)[C@@]21C` (stereo partly specified), > 4 mM (inactive).
